Columns and labels:
[1] = target: T1, Serine/threonine-protein kinase D2 (Homo sapiens) (UniProt Q9BZL6); conditions: Compound concentration 1000.0 nM
T1 sequence (whole entry): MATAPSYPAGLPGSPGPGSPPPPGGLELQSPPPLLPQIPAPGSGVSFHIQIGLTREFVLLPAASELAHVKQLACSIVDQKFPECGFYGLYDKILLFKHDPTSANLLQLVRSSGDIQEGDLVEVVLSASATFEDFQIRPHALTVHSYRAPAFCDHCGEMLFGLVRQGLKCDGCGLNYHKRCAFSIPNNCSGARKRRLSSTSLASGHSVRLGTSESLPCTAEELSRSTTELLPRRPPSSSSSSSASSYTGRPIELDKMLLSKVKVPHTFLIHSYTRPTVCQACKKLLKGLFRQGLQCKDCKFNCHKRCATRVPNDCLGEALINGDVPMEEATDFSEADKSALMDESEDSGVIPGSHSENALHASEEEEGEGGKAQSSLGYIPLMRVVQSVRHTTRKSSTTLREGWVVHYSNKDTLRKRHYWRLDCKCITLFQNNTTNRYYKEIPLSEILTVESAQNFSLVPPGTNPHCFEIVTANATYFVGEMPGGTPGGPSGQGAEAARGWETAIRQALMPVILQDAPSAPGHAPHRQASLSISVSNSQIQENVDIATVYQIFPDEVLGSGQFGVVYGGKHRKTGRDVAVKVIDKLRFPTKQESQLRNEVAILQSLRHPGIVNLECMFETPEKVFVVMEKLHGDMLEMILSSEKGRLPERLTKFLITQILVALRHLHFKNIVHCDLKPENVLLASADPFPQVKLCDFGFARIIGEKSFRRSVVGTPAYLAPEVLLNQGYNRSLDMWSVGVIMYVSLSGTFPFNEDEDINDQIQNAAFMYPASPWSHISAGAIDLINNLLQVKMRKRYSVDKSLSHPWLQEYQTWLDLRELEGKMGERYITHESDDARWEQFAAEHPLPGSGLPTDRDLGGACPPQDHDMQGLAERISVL

[2] = target: Sigma non-opioid intracellular receptor 1 (Homo sapiens) (UniProt Q99720); conditions: Compound concentration 10.0 uM
[3] = target: Cyclin-dependent kinase 11A (Homo sapiens) (UniProt Q9UQ88); conditions: Compound concentration 1000.0 nM
[4] = target: Cyclin-dependent kinase 19 (Homo sapiens) (UniProt Q9BWU1); conditions: Compound concentration 1000.0 nM
[5] = target: T2, Activin receptor type-1B (Homo sapiens) (UniProt P36896); conditions: Compound concentration 1000.0 nM
T2 sequence (whole entry): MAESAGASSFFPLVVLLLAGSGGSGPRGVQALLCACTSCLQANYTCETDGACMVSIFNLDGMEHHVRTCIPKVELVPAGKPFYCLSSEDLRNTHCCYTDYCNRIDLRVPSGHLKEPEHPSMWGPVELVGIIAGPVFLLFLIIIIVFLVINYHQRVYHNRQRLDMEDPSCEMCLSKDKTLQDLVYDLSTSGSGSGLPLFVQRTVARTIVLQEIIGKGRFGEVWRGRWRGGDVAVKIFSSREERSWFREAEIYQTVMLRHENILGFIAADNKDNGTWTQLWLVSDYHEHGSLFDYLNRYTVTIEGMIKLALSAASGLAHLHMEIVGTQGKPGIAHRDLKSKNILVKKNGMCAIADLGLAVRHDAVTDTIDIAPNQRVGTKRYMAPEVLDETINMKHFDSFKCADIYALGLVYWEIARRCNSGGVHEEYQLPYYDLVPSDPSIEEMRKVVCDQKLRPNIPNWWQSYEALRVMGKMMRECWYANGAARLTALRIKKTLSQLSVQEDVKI

[6] = target: Serine/threonine-protein kinase VRK2 (Homo sapiens) (UniProt Q86Y07); conditions: Compound concentration 1000.0 nM
[7] = target: Mitogen-activated protein kinase kinase kinase 1 (Homo sapiens) (UniProt Q13233); conditions: Compound concentration 1000.0 nM
[8] = system: Fibroblast growth factor receptor 3 (Homo sapiens), P22607 [G697C]; conditions: Compound concentration 1000.0 nM
[9] = target: Tyrosine-protein kinase Lck (Homo sapiens) (UniProt P06239); conditions: Compound concentration 1000.0 nM
[10] = target: T3, Mitogen-activated protein kinase 13 (Homo sapiens) (UniProt O15264); conditions: Compound concentration 1000.0 nM
T3 sequence (whole entry): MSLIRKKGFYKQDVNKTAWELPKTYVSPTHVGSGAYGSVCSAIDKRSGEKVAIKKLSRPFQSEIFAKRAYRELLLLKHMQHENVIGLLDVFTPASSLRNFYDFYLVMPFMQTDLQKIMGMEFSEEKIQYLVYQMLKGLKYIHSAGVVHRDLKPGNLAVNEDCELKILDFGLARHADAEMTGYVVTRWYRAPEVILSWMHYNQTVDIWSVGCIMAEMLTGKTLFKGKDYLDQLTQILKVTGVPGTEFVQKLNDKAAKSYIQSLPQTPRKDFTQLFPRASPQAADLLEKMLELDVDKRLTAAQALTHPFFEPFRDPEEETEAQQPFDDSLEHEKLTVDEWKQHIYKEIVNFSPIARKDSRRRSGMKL

[11] = target: T4, Inhibitor of nuclear factor kappa-B kinase subunit alpha (Homo sapiens) (UniProt O15111); conditions: Compound concentration 1000.0 nM
T4 sequence (whole entry): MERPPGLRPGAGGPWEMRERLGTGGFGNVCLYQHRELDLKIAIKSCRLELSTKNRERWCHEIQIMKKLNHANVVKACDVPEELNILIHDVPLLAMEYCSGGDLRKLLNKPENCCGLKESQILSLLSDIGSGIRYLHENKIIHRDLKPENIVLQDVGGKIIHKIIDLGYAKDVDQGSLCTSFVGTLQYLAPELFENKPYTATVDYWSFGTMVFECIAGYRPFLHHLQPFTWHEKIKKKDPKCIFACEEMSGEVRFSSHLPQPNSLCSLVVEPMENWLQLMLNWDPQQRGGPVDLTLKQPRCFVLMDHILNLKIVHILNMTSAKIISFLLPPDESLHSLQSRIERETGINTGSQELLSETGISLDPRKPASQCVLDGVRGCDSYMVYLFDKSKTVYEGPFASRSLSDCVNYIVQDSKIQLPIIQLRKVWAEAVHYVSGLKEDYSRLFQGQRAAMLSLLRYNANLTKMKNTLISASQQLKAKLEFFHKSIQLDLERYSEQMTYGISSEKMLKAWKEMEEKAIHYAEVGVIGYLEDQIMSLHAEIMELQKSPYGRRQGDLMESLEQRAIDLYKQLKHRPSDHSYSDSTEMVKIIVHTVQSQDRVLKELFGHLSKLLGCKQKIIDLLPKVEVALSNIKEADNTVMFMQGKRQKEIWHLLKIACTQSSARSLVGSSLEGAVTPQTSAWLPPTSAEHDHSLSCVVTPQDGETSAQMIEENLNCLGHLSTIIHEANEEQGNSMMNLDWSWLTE

Sequence of Sigma non-opioid intracellular receptor 1 (Homo sapiens) (Q99720 whole entry): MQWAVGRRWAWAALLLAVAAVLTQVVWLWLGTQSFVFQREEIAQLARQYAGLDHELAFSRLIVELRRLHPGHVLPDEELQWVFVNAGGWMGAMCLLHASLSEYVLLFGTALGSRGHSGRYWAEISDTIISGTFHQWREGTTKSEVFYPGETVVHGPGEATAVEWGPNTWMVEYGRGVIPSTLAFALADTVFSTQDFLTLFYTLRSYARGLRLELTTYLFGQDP
Sequence of Tyrosine-protein kinase Lck (Homo sapiens) (P06239 2-509 limits assumed): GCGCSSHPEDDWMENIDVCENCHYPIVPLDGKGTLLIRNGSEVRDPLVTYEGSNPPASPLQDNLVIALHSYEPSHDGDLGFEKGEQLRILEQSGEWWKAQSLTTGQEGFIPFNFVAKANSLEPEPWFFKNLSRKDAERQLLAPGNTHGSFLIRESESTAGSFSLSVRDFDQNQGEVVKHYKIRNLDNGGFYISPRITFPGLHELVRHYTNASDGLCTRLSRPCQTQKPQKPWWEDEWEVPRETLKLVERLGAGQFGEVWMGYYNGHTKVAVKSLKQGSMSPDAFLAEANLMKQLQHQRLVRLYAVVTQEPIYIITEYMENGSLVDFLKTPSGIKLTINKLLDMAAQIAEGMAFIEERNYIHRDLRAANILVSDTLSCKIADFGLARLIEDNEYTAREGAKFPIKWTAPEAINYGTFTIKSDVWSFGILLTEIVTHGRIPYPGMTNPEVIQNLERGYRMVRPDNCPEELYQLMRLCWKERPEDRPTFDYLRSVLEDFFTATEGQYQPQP
Sequence of Fibroblast growth factor receptor 3 (Homo sapiens), P22607 [G697C] (P22607 whole entry G697C): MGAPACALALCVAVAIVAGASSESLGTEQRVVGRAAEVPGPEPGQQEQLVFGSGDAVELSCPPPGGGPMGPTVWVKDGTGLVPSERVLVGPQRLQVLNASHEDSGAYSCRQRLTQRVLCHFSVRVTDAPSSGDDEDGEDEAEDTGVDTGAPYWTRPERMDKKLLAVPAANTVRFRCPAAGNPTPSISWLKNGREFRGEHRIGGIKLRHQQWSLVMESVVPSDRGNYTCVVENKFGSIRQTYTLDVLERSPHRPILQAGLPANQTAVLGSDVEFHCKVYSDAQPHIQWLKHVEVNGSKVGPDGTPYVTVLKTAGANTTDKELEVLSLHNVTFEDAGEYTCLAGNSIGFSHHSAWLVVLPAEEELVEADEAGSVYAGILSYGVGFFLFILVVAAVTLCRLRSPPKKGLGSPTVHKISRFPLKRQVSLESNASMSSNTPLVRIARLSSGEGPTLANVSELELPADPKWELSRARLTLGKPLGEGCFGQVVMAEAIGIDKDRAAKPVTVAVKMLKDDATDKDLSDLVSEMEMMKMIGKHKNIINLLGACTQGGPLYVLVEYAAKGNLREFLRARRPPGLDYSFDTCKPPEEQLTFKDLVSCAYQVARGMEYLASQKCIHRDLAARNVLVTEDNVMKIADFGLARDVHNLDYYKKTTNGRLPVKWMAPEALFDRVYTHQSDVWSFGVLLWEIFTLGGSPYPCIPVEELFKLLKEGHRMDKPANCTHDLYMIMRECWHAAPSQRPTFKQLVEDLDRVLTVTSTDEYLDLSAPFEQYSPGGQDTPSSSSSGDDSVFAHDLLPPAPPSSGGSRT
Sequence of Cyclin-dependent kinase 19 (Homo sapiens) (Q9BWU1 whole entry): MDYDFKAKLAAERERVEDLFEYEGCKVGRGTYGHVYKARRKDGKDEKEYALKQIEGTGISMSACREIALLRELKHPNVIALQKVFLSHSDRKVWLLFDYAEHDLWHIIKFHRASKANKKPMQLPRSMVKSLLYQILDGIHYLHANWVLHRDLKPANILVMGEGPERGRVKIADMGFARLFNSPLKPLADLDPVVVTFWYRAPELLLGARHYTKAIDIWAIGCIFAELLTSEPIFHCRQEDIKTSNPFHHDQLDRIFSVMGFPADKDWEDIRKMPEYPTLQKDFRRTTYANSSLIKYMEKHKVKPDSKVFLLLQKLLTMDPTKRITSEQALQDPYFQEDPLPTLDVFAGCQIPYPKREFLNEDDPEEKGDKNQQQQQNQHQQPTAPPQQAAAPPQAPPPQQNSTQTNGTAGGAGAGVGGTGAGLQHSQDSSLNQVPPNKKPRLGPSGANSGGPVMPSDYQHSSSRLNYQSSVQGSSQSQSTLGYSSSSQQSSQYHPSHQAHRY
Sequence of Mitogen-activated protein kinase kinase kinase 1 (Homo sapiens) (Q13233 whole entry): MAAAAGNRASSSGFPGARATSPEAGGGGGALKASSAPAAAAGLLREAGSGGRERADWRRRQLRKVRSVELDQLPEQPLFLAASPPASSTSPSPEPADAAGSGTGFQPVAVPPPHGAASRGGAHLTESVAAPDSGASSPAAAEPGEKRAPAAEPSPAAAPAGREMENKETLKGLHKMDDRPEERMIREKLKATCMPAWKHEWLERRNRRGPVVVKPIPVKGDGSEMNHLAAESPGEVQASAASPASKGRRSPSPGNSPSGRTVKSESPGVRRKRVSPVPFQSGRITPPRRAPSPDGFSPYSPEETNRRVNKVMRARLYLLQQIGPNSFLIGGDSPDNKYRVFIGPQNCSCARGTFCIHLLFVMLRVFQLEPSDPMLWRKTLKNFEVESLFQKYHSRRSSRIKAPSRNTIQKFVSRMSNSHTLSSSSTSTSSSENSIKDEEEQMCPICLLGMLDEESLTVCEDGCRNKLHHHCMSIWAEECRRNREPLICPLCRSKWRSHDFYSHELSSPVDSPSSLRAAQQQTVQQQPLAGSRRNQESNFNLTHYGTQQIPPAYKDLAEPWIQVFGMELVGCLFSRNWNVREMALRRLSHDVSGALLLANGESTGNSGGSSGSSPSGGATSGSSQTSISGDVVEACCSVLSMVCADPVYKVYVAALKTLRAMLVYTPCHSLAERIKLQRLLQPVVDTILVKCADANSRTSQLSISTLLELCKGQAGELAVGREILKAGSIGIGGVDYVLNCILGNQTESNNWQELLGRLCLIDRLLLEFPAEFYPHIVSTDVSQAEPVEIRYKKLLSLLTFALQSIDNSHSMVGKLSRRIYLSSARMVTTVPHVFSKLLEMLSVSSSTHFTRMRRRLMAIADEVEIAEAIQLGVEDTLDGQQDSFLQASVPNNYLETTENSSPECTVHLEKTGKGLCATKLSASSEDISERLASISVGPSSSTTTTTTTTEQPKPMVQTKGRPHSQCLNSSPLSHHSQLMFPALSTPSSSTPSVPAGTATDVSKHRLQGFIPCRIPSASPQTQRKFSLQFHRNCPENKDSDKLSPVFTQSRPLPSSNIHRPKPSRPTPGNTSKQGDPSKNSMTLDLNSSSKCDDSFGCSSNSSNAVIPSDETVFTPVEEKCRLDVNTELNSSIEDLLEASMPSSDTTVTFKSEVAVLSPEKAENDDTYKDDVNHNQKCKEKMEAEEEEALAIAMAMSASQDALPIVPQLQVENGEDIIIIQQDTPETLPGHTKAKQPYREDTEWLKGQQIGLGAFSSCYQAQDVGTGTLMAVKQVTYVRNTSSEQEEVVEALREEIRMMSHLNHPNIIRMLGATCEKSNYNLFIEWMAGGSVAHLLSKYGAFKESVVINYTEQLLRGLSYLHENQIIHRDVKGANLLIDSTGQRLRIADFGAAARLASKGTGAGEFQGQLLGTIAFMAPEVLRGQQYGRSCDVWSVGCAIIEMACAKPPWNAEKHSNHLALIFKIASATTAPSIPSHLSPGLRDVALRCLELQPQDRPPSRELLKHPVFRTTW
Sequence of Serine/threonine-protein kinase VRK2 (Homo sapiens) (Q86Y07 whole entry): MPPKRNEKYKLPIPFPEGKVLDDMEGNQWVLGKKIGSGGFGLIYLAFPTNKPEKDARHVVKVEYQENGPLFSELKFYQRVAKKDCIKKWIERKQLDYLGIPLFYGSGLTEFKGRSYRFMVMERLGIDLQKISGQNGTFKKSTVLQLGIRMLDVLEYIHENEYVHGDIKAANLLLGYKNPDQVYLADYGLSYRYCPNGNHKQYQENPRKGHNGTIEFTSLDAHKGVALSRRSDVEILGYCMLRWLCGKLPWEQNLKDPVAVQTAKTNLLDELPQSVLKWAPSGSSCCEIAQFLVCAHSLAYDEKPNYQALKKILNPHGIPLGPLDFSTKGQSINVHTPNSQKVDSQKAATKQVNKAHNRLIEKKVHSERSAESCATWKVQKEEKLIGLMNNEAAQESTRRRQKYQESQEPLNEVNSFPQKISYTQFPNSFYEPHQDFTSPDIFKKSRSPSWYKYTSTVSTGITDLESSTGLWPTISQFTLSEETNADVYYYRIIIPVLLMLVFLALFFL
Sequence of Cyclin-dependent kinase 11A (Homo sapiens) (Q9UQ88 whole entry): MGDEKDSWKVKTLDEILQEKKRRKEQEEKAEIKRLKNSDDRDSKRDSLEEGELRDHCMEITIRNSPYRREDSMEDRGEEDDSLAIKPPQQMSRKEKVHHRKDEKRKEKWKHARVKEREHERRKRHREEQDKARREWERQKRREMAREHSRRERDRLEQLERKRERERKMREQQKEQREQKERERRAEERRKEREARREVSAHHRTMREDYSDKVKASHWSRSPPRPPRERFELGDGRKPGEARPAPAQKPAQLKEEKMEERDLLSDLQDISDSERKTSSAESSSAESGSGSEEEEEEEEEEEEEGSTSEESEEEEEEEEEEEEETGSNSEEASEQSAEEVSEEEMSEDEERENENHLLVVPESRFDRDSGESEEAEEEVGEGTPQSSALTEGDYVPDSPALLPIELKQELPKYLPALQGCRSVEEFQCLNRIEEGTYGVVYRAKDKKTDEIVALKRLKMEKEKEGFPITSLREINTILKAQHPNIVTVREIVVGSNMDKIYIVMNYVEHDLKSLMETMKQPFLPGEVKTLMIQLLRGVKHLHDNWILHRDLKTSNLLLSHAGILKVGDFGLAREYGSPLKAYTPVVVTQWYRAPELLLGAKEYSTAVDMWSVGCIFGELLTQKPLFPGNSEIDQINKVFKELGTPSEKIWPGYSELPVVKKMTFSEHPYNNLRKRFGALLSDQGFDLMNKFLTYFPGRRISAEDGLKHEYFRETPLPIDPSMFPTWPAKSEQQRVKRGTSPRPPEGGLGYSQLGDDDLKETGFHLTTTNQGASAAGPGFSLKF

CC1=C(C#N)C(c2ccc3c(c2)c(NC(=O)c2ccccc2C)nn3C)C(C#N)=C(C)N1 [BAY-974]
inactive: residual activity [1] 95% | inhibition [2] 37.9% | residual activity [3] 100% | residual activity [4] 74% | residual activity [5] 80% | residual activity [6] 72% | residual activity [7] 51% | residual activity [8] 93% | residual activity [9] 81% | residual activity [10] 79% | residual activity [11] 77%

CCc1ccccc1C(=O)Nc1n[nH]c2c(C)c(F)c(C3C(C#N)=C(C)N(C)C(C)=C3C#N)cc12 [BAY-3827]
inactive: residual activity [1] 87% | inhibition [2] 30.5% | residual activity [3] 86% | residual activity [4] 100% | residual activity [5] 100% | residual activity [6] 100% | residual activity [7] 100% | residual activity [8] 74% | residual activity [9] 100% | residual activity [10] 96% | residual activity [11] 87%
